Values after ≈ are worked out from the molar mass of the structure shown. Like-named read-outs stand apart in the source and are kept apart here.
Tests used:
[1] = test system: Neiss. sic.; assay: In vitro antibacterial activity (MIC), BHI agar; type: cell-based; conditions: 18 hours at 37° C., read-out: Minimum Inhibitory Concentration (MIC)
Procedure: (§1) The procedure which is followed is the one recommended by the International Collaborative Study on Antibiotic Sensitivity Testing [Ericcson and Sherris, Acta. Pathologica et Microbiologia Scandinav, Supp. 217, Sections A and B: 64-68 (1971)], and employs brain heart infusion (BHI) agar and the inocula replicating device. Overnight growth tubes are diluted 100 fold for use as the standard inoculum (20,000-10,000 cells in approximately 0.002 ml are placed on the agar surface; 20 ml of BHI agar/dish). Twelve 2 fold dilutions of the test compound are employed, with initial concentration of the test drug being 200 mcg/ml. Single colonies are disregarded when reading plates after 18 hours at 37° C. The susceptibility (MIC) of the test organism is accepted as the lowest concentration of compound capable of producing complete inhibition of growth as judged by the naked eye. A comparison of the in vitro activity of various compounds of the formulae (I) and (II) with tylonolide is recorded in Table 1.

[2] = test system: Past. mult. 1; assay: In vitro antibacterial activity (MIC), BHI agar; type: cell-based; conditions: 18 hours at 37° C., read-out: Minimum Inhibitory Concentration (MIC)
Procedure: as §1

[3] = test system: Staph. aur. 52; assay: In vitro antibacterial activity (MIC), BHI agar; type: cell-based; conditions: 18 hours at 37° C., read-out: Minimum Inhibitory Concentration (MIC)
Procedure: as §1

[4] = test system: Strep. faec. 6; assay: In vitro antibacterial activity (MIC), BHI agar; type: cell-based; conditions: 18 hours at 37° C., read-out: Minimum Inhibitory Concentration (MIC)
Procedure: as §1

[5] = test system: Staph. aur. 5; assay: In vitro antibacterial activity (MIC), BHI agar; type: cell-based; conditions: 18 hours at 37° C., read-out: Minimum Inhibitory Concentration (MIC)
Procedure: as §1

[6] = test system: Staph. epi. 111; assay: In vitro antibacterial activity (MIC), BHI agar; type: cell-based; conditions: 18 hours at 37° C., read-out: Minimum Inhibitory Concentration (MIC)
Procedure: as §1

[7] = test system: Strep. pneum. 12; assay: In vitro antibacterial activity (MIC), BHI agar; type: cell-based; conditions: 18 hours at 37° C., read-out: Minimum Inhibitory Concentration (MIC)
Procedure: as §1

[8] = test system: Staph. aur. 400; assay: In vitro antibacterial activity (MIC), BHI agar; type: cell-based; conditions: 18 hours at 37° C., read-out: Minimum Inhibitory Concentration (MIC)
Procedure: as §1

[9] = test system: Strep. pyog. 203; assay: In vitro antibacterial activity (MIC), BHI agar; type: cell-based; conditions: 18 hours at 37° C., read-out: Minimum Inhibitory Concentration (MIC)
Procedure: as §1

[10] = test system: Staph. epi. 87; assay: In vitro antibacterial activity (MIC), BHI agar; type: cell-based; conditions: read-out: Minimum Inhibitory Concentration (MIC)
Procedure: as §1

[11] = test system: E. coli 470; assay: In vitro antibacterial activity (MIC), BHI agar; type: cell-based; conditions: read-out: Minimum Inhibitory Concentration (MIC)
Procedure: as §1

[12] = test system: Staph. epi. 126; assay: In vitro antibacterial activity (MIC), BHI agar; type: cell-based; conditions: 18 hours at 37° C., read-out: Minimum Inhibitory Concentration (MIC)
Procedure: as §1

[13] = test system: infections by sensitive bacteria; assay: In vivo activity against acute experimental infections in mice (PD50); conditions: Mus musculus, sc; subcutaneous; mice infected intraperitoneally, at least one LD100; organism not given; read-out: PD50 (dose which protects 50% of the animals from infection)
Source text: In determining such activity, acute experimental infections are produced in mice by the intraperitoneal inoculation of the mice with a standardized culture of the test organism suspended in 5 percent hog gastric mucin. Infection severity is standarized so that the mice receive at least one LD100 dose of the organism (LD100 : the minimum inoculum of organism required to consistently kill 100 percent of the infected, nontreated control mice). The test compound is then subcutaneously or orally administered at various dosage levels to groups of infected mice. At the end of the test, the activity of the mixture is assessed by counting the number of survivors among treated animals at a given dose. Activity is expressed as the percentage of animals which survive at a given dose, or calculated as a PD50 (dose which protects 50% of the animals from infection).

[14] = test system: Bac. sub. 1; assay: In vitro antibacterial activity (MIC), BHI agar; type: cell-based; conditions: 18 hours at 37° C., read-out: Minimum Inhibitory Concentration (MIC)
Procedure: as §1

[15] = Escherichia coli, E. coli 470, BHI agar, 18 hours at 37° C.

SMILES	MIC [1] [µg/mL]	MIC [2] [µg/mL]	MIC [3] [µg/mL]	MIC [4] [µg/mL]	MIC [5] [µg/mL]	MIC [6] [µg/mL]	MIC [7] [µg/mL]	MIC [8] [µg/mL]	MIC [9] [µg/mL]	MIC ([10]; 18 h) [µg/mL]	MIC ([11]; Escherichia coli, 470, 18 h) [µg/mL]	MIC [12] [µg/mL]	ED50 [13] [mg/kg]	MIC [14] [µg/mL]	MIC ([10]; Staph. epi. 87, BHI agar, 18 hours at 37° C.) [µg/mL]	MIC [11, 15] [µg/mL]
CCC1OC(=O)CC(O)C(C)C(OC2OC(C)C(O)C(N(C)C)C2O)C(CC=O)CC(C)C(=O)C=CC(C)=CC1CO [(a), 5-(3,6-dideoxy-3-dimethylamino-beta-D-glucopyrnosyloxy)-6-formylmethyl-3-hydroxy-14-hydroxymethyl-4,8,12-trimethyl-9-oxo-10,12-heptadecadien-15-olide, reference compound]	6.25 (≈ 10.5 µM)	1.56 (≈ 2.61 µM)	0.78 (≈ 1.3 µM)	0.78 (≈ 1.3 µM)	0.78 (≈ 1.3 µM)	1.56 (≈ 2.61 µM)	0.1 (≈ 0.167 µM)	1.56 (≈ 2.61 µM)	0.39 (≈ 0.652 µM)	3.12 (≈ 5.22 µM)	3.12 (≈ 5.22 µM)	0.78 (≈ 1.3 µM)	3.12	–	–	–
CCC1OC(=O)CC(O)C(C)C(OC2OC(C)C(O)C(N(C)C)C2O)C(CC=O)CC(C)C(=O)C=CC(C)=CC1COS(=O)(=O)c1ccc(C)cc1 (stereo not shown) [(b)]	1.56 (≈ 2.07 µM)	3.12 (≈ 4.15 µM)	0.78 (≈ 1.04 µM)	0.39 (≈ 0.519 µM)	0.78 (≈ 1.04 µM)	1.56 (≈ 2.07 µM)	–	0.78 (≈ 1.04 µM)	0.2 (≈ 0.266 µM)	–	–	1.56 (≈ 2.07 µM)	19	0.78 (≈ 1.04 µM)	–	–
CCC1OC(=O)CC(O)C(C)C(OC2OC(C)C(O)C(N(C)C)C2O)C(CC=NN(C)C)CC(C)C(=O)C=CC(C)=CC1COS(=O)(=O)c1ccc(C)cc1 (stereo not shown) [(c)]	0.78 (≈ 0.982 µM)	3.12 (≈ 3.93 µM)	0.2 (≈ 0.252 µM)	0.1 (≈ 0.126 µM)	0.1 (≈ 0.126 µM)	0.1 (≈ 0.126 µM)	–	0.2 (≈ 0.252 µM)	0.05 (≈ 0.063 µM)	–	–	1.56 (≈ 1.96 µM)	50	0.2 (≈ 0.252 µM)	–	–
CCC1OC(=O)CC(O)C(C)C(OC2OC(C)C(O)C(N(C)C)C2O)C(CC=O)CC(C)C(=O)C=CC(C)=CC1CI (stereo not shown) [(d)]	0.78 (≈ 1.1 µM)	–	0.39 (≈ 0.551 µM)	3.12 (≈ 4.41 µM)	0.39 (≈ 0.551 µM)	0.78 (≈ 1.1 µM)	–	1.56 (≈ 2.2 µM)	0.1 (≈ 0.141 µM)	–	–	6.25 (≈ 8.83 µM)	–	0.78 (≈ 1.1 µM)	–	–
CCC1OC(=O)CC(O)C(C)C(OC2OC(C)C(O)C(N(C)C)C2O)C(CC=NN(C)C)CC(C)C(=O)C=CC(C)=CC1CI (stereo not shown) [(e)]	0.39 (≈ 0.52 µM)	1.56 (≈ 2.08 µM)	0.2 (≈ 0.267 µM)	0.39 (≈ 0.52 µM)	0.2 (≈ 0.267 µM)	0.2 (≈ 0.267 µM)	–	0.2 (≈ 0.267 µM)	0.1 (≈ 0.133 µM)	–	–	0.78 (≈ 1.04 µM)	> 50	0.1 (≈ 0.133 µM)	–	–
CCC1OC(=O)CC(OC(C)=O)C(C)C(OC2OC(C)C(O)C(N(C)C)C2O)C(CC=O)CC(C)C(=O)C=CC(C)=CC1CN(C)C (stereo not shown) [(f)]	3.12 (≈ 4.68 µM)	6.25 (≈ 9.37 µM)	3.12 (≈ 4.68 µM)	6.25 (≈ 9.37 µM)	3.12 (≈ 4.68 µM)	1.56 (≈ 2.34 µM)	–	3.12 (≈ 4.68 µM)	0.39 (≈ 0.585 µM)	–	–	1.56 (≈ 2.34 µM)	–	0.78 (≈ 1.17 µM)	–	–
CCC1OC(=O)CC(O)C(C)C(OC2OC(C)C(O)C(N(C)C)C2O)C(CC=O)CC(C)C(=O)C=CC(C)=CC1CCl (stereo not shown) [(g)]	1.56 (≈ 2.53 µM)	1.56 (≈ 2.53 µM)	0.78 (≈ 1.27 µM)	0.78 (≈ 1.27 µM)	0.78 (≈ 1.27 µM)	0.2 (≈ 0.325 µM)	0.02 (≈ 0.0325 µM)	0.39 (≈ 0.633 µM)	0.39 (≈ 0.633 µM)	–	–	0.78 (≈ 1.27 µM)	13	0.1 (≈ 0.162 µM)	25 (≈ 40.6 µM)	0.78 (≈ 1.27 µM)
CCC1OC(=O)CC(O)C(C)C(OC2OC(C)C(O)C(N(C)C)C2O)C(CC=O)CC(C)C(=O)C=CC(C)=CC1CN(C)C (stereo not shown) [(h)]	12.5 (≈ 20 µM)	1.56 (≈ 2.5 µM)	1.56 (≈ 2.5 µM)	3.12 (≈ 4.99 µM)	0.78 (≈ 1.25 µM)	0.78 (≈ 1.25 µM)	0.39 (≈ 0.624 µM)	1.56 (≈ 2.5 µM)	0.2 (≈ 0.32 µM)	–	–	3.12 (≈ 4.99 µM)	2.4	–	–	1.56 (≈ 2.5 µM)

From patent US4454314A, “Antibacterial mycaminosyl tylonolide and related macrolide derivatives” (Pfizer Inc., priority 1982, dated 1984)
